From PubChem BioAssay (NCI)
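Cultured in 96-well plates, cells were exposed to test compound for 48 hours across five concentrations. GI50: concentration for 50% inhibition of growth. TGI: concentration producing complete growth inhibition.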 *1 amine or outer side, *2 acyl side, *3 side chain or, on linkers, in order; H or OH if unused. Where a SMILES comes first, the peptide text is derived from it. Bridges are numbered along the chain shown (N, C = ends). [ ]: non-standard residue; d: D form. The star is where a group is joined. ξ: configuration not given here. Phe(3,5-F2) = N[C@@H](Cc1cc(F)cc(F)c1)C(=O)O; ξThr(3S) = C[C@H](O[*:3])C(N[*:1])C(=O)[*:2]; X25 = C[C@H]1OCCN([*:1])[C@@H]1C(=O)[*:2]; Pro(4R-Me) = C[C@H]1CN[C@H](C(=O)O)C1; X24 = O=S(=O)(F)Oc1ccc(N*)cc1; CO = O=C([*:1])[*:2]

What was measured:
Experiment in all cases: DTP human tumour cell line panel, 48 h
MCF7 breast = system: MCF7 breast
LOX IMVI melanoma = system: LOX IMVI melanoma
HCC-2998 colon = system: HCC-2998 colon
A498 renal = system: A498 renal
HT29 colon = system: HT29 colon
TK-10 renal = system: TK-10 renal
UACC-62 melanoma = system: UACC-62 melanoma
786-0 renal = system: 786-0 renal
HL-60(TB) leukemia = system: HL-60(TB) leukemia
SK-MEL-2 melanoma = system: SK-MEL-2 melanoma
MDA-MB-435 = system: MDA-MB-435
DU-145 prostate = system: DU-145 prostate
SF-295 CNS = system: SF-295 CNS
M14 melanoma = system: M14 melanoma
COLO 205 colon = system: COLO 205 colon
MOLT-4 leukemia = system: MOLT-4 leukemia
SK-MEL-28 melanoma = system: SK-MEL-28 melanoma
HCT-15 colon = system: HCT-15 colon
OVCAR-8 ovarian = system: OVCAR-8 ovarian
T-47D breast = system: T-47D breast
RXF 393 renal = system: RXF 393 renal
OVCAR-4 ovarian = system: OVCAR-4 ovarian
NCI/ADR-RES ovarian = system: NCI/ADR-RES ovarian
HOP-92 NSCLC = system: HOP-92 NSCLC
NCI-H226 lung = system: NCI-H226 lung
RPMI-8226 leukemia = system: RPMI-8226 leukemia
K-562 leukemia = system: K-562 leukemia
U251 CNS = system: U251 CNS
SF-268 CNS = system: SF-268 CNS
SN12C renal = system: SN12C renal
OVCAR-3 ovarian = system: OVCAR-3 ovarian
CCRF-CEM leukemia = system: CCRF-CEM leukemia
NCI-H460 lung = system: NCI-H460 lung
SK-MEL-5 melanoma = system: SK-MEL-5 melanoma
MALME-3M melanoma = system: MALME-3M melanoma
OVCAR-5 ovarian = system: OVCAR-5 ovarian
UO-31 renal = system: UO-31 renal
PC-3 prostate = system: PC-3 prostate
ACHN renal = system: ACHN renal
SR leukemia = system: SR leukemia
IGROV1 ovarian = system: IGROV1 ovarian
HOP-62 NSCLC = system: HOP-62 NSCLC
UACC-257 melanoma = system: UACC-257 melanoma
SNB-75 CNS = system: SNB-75 CNS
HS 578T breast = system: HS 578T breast
SW-620 colon = system: SW-620 colon
CAKI-1 renal = system: CAKI-1 renal
SF-539 CNS = system: SF-539 CNS
KM12 colon = system: KM12 colon
HCT-116 colon = system: HCT-116 colon
A549 NSCLC = system: A549 NSCLC
SNB-19 CNS = system: SNB-19 CNS
EKVX NSCLC = system: EKVX NSCLC
SK-OV-3 ovarian = system: SK-OV-3 ovarian
BT-549 breast = system: BT-549 breast
MDA-MB-231 breast = system: MDA-MB-231 breast
NCI-H522 lung = system: NCI-H522 lung

## C[C@@H]1C[C@H]2C(=O)O[C@@H](C)C(NC(=O)[C@H](Cc3cc(F)cc(F)c3)NC(=O)Nc3ccc(OS(=O)(=O)F)cc3)C(=O)N3CCC[C@H]3C(=O)N3CCO[C@H](C)[C@H]3C(=O)N[C@@H](CO)C(=O)N2C1 (stereo partly drawn) ({X24-CO}-[Phe(3,5-F2)][ξThr(3S)]P[X25]S[Pro(4R-Me)]; ester 2-C)
MCF7 breast
  GI50: 0.454 µM
  TGI: 64.7 µM
LOX IMVI melanoma
  GI50: 1.41 µM
  TGI: > 100 µM
HCC-2998 colon
  GI50: 1.33 µM
  TGI: 18.7 µM
A498 renal
  GI50: 3.05 µM
  TGI: 69.4 µM
HT29 colon
  GI50: 2.69 µM
  TGI: 18.6 µM
TK-10 renal
  GI50: 6.22 µM
  TGI: > 100 µM
UACC-62 melanoma
  GI50: 1.75 µM
  TGI: 64.7 µM
786-0 renal
  GI50: 4.54 µM
  TGI: > 100 µM
HL-60(TB) leukemia
  GI50: 0.335 µM
  TGI: 3.18 µM
SK-MEL-2 melanoma
  GI50: 0.419 µM
  TGI: 3.59 µM
MDA-MB-435
  GI50: 0.589 µM
  TGI: 62 µM
DU-145 prostate
  GI50: 3.48 µM
  TGI: > 100 µM
SF-295 CNS
  GI50: 3.27 µM
  TGI: 13.1 µM
M14 melanoma
  GI50: 2.76 µM
  TGI: 22.4 µM
COLO 205 colon
  GI50: 0.683 µM
  TGI: 3.17 µM
MOLT-4 leukemia
  GI50: 2.12 µM
  TGI: 29.6 µM
SK-MEL-28 melanoma
  GI50: 2.3 µM
  TGI: > 100 µM
HCT-15 colon
  GI50: 15.3 µM
  TGI: > 100 µM
OVCAR-8 ovarian
  GI50: 2.66 µM
  TGI: > 100 µM
T-47D breast
  GI50: 0.633 µM
  TGI: > 100 µM
RXF 393 renal
  GI50: 3.16 µM
  TGI: 37.2 µM
OVCAR-4 ovarian
  GI50: 2.38 µM
  TGI: > 100 µM
NCI/ADR-RES ovarian
  GI50: > 100 µM
  TGI: > 100 µM
HOP-92 NSCLC
  GI50: 0.927 µM
  TGI: 7.57 µM
NCI-H226 lung
  GI50: 2.3 µM
  TGI: 9.41 µM
RPMI-8226 leukemia
  GI50: 0.346 µM
  TGI: 2.36 µM
K-562 leukemia
  GI50: 0.482 µM
  TGI: > 100 µM
U251 CNS
  GI50: 0.769 µM
  TGI: > 100 µM
SF-268 CNS
  GI50: 1.33 µM
  TGI: > 100 µM
SN12C renal
  GI50: 1.36 µM
  TGI: > 100 µM
OVCAR-3 ovarian
  GI50: 0.622 µM
  TGI: 23.7 µM
CCRF-CEM leukemia
  GI50: 0.591 µM
  TGI: > 100 µM
NCI-H460 lung
  GI50: 2.39 µM
  TGI: > 100 µM
SK-MEL-5 melanoma
  GI50: 3.09 µM
  TGI: 11.6 µM
MALME-3M melanoma
  GI50: 3.23 µM
  TGI: 45.2 µM
OVCAR-5 ovarian
  GI50: 3.58 µM
  TGI: 26.8 µM
UO-31 renal
  GI50: 23.7 µM
  TGI: > 100 µM
PC-3 prostate
  GI50: 1.01 µM
  TGI: > 100 µM
ACHN renal
  GI50: 10.1 µM
  TGI: 35.3 µM
SR leukemia
  GI50: 1.64 µM
  TGI: 29.1 µM
IGROV1 ovarian
  GI50: 2.67 µM
  TGI: > 100 µM
HOP-62 NSCLC
  GI50: 2.81 µM
  TGI: > 100 µM
UACC-257 melanoma
  GI50: 1.51 µM
  TGI: 8.97 µM
SNB-75 CNS
  GI50: 0.53 µM
  TGI: 7.46 µM
HS 578T breast
  GI50: 0.916 µM
  TGI: > 100 µM
SW-620 colon
  GI50: 1.61 µM
  TGI: > 100 µM
CAKI-1 renal
  GI50: 2.79 µM
  TGI: 34.8 µM
SF-539 CNS
  GI50: 2.44 µM
  TGI: > 100 µM
KM12 colon
  GI50: 4.39 µM
  TGI: > 100 µM
HCT-116 colon
  GI50: 0.452 µM
  TGI: 14.3 µM
A549 NSCLC
  GI50: 4.63 µM
  TGI: > 100 µM
SNB-19 CNS
  GI50: 0.598 µM
  TGI: > 100 µM
EKVX NSCLC
  GI50: 3.2 µM
  TGI: > 100 µM
SK-OV-3 ovarian
  GI50: 2.49 µM
  TGI: 8.45 µM
BT-549 breast
  GI50: 0.853 µM
  TGI: 24.8 µM
MDA-MB-231 breast
  GI50: 0.642 µM
  TGI: 20.4 µM
NCI-H522 lung
  GI50: 0.497 µM
  TGI: 9.3 µM
